Measured values from paper PMC11171921, “NinaB and BCO Collaboratively Participate in the β-Carotene Catabolism in Crustaceans: A Case Study on Chinese Mitten Crab Eriocheir sinensis” (International Journal of Molecular Sciences, 2024).

Target: T1, EsNinaBl (Eriocheir sinensis, UniProt Z9UJ24V2T0)
T1 construct: full ORF in pGEX-4T (GST fusion vector), expressed in beta-carotene-producing E. coli BL(DE3) with pAC-BETAipi; primer-encoded N-terminus MSTDEGG, C-terminus FIPAEAQ
T1 sequence (Z9UJ24V2T0 1-523): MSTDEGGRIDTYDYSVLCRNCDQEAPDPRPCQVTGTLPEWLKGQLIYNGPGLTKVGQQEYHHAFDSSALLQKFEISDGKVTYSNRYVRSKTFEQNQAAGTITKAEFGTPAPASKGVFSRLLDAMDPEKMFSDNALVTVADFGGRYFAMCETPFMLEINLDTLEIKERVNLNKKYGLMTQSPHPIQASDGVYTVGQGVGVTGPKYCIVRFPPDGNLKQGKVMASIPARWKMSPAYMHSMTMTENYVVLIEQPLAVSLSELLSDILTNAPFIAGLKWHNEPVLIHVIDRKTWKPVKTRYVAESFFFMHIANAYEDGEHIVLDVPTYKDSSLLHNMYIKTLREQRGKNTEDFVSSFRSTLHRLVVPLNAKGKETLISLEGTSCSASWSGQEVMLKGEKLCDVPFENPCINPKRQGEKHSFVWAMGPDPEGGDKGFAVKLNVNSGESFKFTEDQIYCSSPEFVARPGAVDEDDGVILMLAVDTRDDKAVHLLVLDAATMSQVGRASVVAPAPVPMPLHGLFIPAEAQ
Test: beta-carotene degradation and decolorization in beta-carotene-accumulating E. coli
Type: cell-based
Conditions: co-expression with pAC-BETAipi; […] IPTG induction; GST-fusion vector; products not identified

CC1=C(/C=C/C(C)=C/C=C/C(C)=C/C=C/C=C(C)/C=C/C=C(C)/C=C/C2=C(C)CCCC2(C)C)C(C)(C)CCC1 [β-carotene]
beta-carotene degradation and decolorization in beta-carotene-accumulating E. co: evident decolorization was observed in the β-carotene-accumulated bacteria expressing EsNinaBl
